Source: patent publication US11090349B2, “Plant extract obtained from Morus plant leaves, compositions containing same, method of extraction and uses thereof” (Botanic Century (Beijing) Co. Ltd., priority 2009, dated 2021)

How the values were obtained:
tyrosinase [1] = target: T1, tyrosinase (Mus musculus, UniProt P11344); assay: Direct effect on tyrosinase catalytic activity in B16 cell extract; assay type: biochemical; conditions: incubated 1 hour at 37° C., L-dopa
T1 construct: supernatant (cell extract) containing the cellular components being retained for assay purposes; endogenous in cells; host or cells: B16 melanoma cells
T1 sequence (P11344 19-533): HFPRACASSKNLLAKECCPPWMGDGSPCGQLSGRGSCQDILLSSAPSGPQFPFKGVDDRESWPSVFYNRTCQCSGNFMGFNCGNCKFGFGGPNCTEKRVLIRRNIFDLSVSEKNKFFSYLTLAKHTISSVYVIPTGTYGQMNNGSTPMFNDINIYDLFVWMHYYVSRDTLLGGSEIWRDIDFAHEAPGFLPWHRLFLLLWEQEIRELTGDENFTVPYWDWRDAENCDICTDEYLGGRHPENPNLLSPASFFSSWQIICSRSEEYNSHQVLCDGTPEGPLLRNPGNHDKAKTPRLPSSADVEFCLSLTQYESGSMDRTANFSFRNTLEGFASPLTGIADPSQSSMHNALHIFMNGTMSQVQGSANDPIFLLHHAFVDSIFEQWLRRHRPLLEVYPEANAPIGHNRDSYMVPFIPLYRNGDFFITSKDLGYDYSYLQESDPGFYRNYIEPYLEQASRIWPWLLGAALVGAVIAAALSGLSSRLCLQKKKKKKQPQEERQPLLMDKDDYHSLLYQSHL
Description: (§1) The aim was to investigate the impact and mechanisms of action of the test samples on the TYR activity in melanoma cell line B16.
(§2) B16 melanoma cells were washed with phosphate-buffered saline and collected in a centrifuge tube. After centrifugation, WIP-lysis buffer containing phenyl-methylsulfonyl fluoride (PMSF) was added to the cell pellet to lyse the cells and the solution was left to stand on ice for 30 minutes. The solution was subsequently centrifuged for 10 min, at 12000 g, at 4° C., with the supernatant (cell extract) containing the cellular components being retained for assay purposes.
The plate was incubated at 37° C. for 1 hour, and then 80 μl L-dopa was added to each well. The absorbance (492 nm) of each well was recorded at 5 minute intervals for 30 minutes at 37° C. using a microplate reader.

tyrosinase [2] = assay: Indirect effect on tyrosinase activity, B16 cells cultured with sample for three days; assay type: cell-based; conditions: B16 cells incubated three days with test compound before extraction
Description: as §1, §2

B16 melanoma cells [3] = assay: Cell viability, MTT assay; assay type: cell-based; conditions: for growth inhibition of B16 melanoma cells (MTT): below the concentration of 200 ppm
Description: Cell survival was measured using the MTT assay, which is based on the conversion of 3-(4,5-dimethylthiazol-2-yl)-2,5-diphenyltetrazolium bromide to MTT-formazan crystal by mitochondrial enzyme in viable cells. MTT was freshly prepared at 2 mg/ml in phosphate-buffered saline (PBS). […] Aliquots of 20 μl of MTT stock solution were added to the well at different time points throughout the experiment, and the plate was incubated at 37° C. for 4 h in a humidified 5% CO2 incubator. After 4 h, the formazan crystals of these cells were solubilized in 100 μl DMSO by gentle shaking. After 10 min, the amount of formazan was quantified spectrophotometrically using an ELISA plate reader at 540 nm.

B16 melanoma cells [4] = assay: Melanin content in B16 melanoma cells; assay type: cell-based; conditions: different concentrations
Description: The aim was to investigate the impact of the test samples on melanin content of melanoma cell line B16. […] The method was as set out below: • 1. Harvest the melanoma B16 cells at Log phase and adjust the cell suspension to an appropriate concentration, divide into 24 well plates and allow the cells to adhere to the walls. • 2. […] Add 250 μl WIP lysis buffer and allow to lyse in an ice bath, vortex mixing once every 5 min for 4-5 times. • 4. Centrifuge for 10 min at 12000 rpm at 4° C. Discard the supernatant and dissolve the precipitate with 400 μl 1N NaOH and keep it in a 80° C. water bath for 1 hour. • 5. Use a microplate reader to measure OD value at 405 nm, and calculate the relative content. Results and discussion: The B16 melanoma cells were seeded at a density of 4×10^4 cell per well of 24-well culture plates, incubated at 37° C. under 5% CO2 atmosphere for 24 h. […] The cells were washed with phosphate-buffered saline, collected in centrifuge tube. After centrifugation, cell pellets were disrupted in WIP lysis buffer containing phenylmethylsulfonyl fluoride (PMSF) on ice for 30 min. The solution was centrifuged for 10 min at 12000 g at 4° C., the pellets were dissolved in 1N NaOH by boiling for 1 h at 70° C. The melanin content was assayed at 405 nm in a spectrophotometer.

Wistar rats = assay: Blood glucose of Wistar rats after starch meal; assay type: in vivo, Wistar rat; conditions: positive control 25 mg/kg
Description: The reagents and apparatus are set out below: • (1) Mulberry leaf extract of Example 1 • (2) Saline • (3) Miglitol standard reference chemical • (4) 64 Wistar rats • (5) Johnson's One Touch Ultra blood glucose meter and Code 9 blood glucose test strips The method used was as set out below:
Animals received Morus extract via intraperitoneal injection (15 mg/kg or 30 mg/kg) or intragastrically (25 mg/kg or 50 mg/kg). Miglitol (Glyset®) (25 mg/kg), an α-glucosidase inhibitor approved for type-2 diabetes was used as a positive control. Fasted blood-sugar levels were recorded as a baseline, and blood sugar levels were measured at time intervals 05.hr, 1 hr and 2 hrs after receiving a starch meal. The animals were dosed with Morus extract prior to receiving the starch meal.

| SMILES | direct effect on tyrosinase activity (tyrosinase [1]) | indirect effect on tyrosinase activity (tyrosinase [2]) | concentration above which viability of the cell decreased (B16 melanoma cells [3]; B16 melanoma cell) | growth inhibition of B16 melanoma cells (MTT) (B16 melanoma cells [3]) | content of melanin compared to the control (B16 melanoma cells [4]) | Blood glucose 0.5 h after giving starch (Wistar rats) | Blood glucose 1 h after giving starch (Wistar rats) | Blood glucose 2 h after giving starch (Wistar rats) | Fasted Glucose (Wistar rats; baseline) |
| --- | --- | --- | --- | --- | --- | --- | --- | --- | --- |
| OC[C@H]1O[C@@H](Oc2ccc(O)cc2)[C@H](O)[C@@H](O)[C@@H]1O [arbutin] | reduced the activity of tyrosinase in a dose-dependent manner | no effect on tyrosinase activity |  |  |  |  |  |  |  |
| O=C1O[C@H]([C@@H](O)CO)C([O-])=C1OP(=O)([O-])[O-].O=C1O[C@H]([C@@H](O)CO)C([O-])=C1OP(=O)([O-])[O-].[Mg+2].[Mg+2].[Mg+2] [VC-PMG, magnesium L-ascorbyl-2-phosphate] |  |  | over 200 ppm | no growth inhibition | decreased significantly in a dose-dependent manner |  |  |  |  |
| OCCN1C[C@H](O)[C@@H](O)[C@H](O)[C@H]1CO [Miglitol] |  |  |  |  |  | 2.27 ± 0.71 mmol/L | 2.98 ± 0.52 mmol/L | 2.69 ± 0.35 mmol/L | 3.04 ± 0.74 mmol/L |
| OCC1NCC(O)C(O)C1O (stereo not shown) [DNJ, 1-deoxynojirimycin] | no effect on tyrosinase activity | dose-dependent decrease in tyrosinase activity |  | no growth inhibition | decreased significantly in a dose-dependent manner |  |  |  |  |
